Test results taken from patent publication US9776972B2, “Pyrazole derivatives as arginine methyltransferase inhibitors and uses thereof” (priority 2013, dated 2017).

Target: human PRMT3 (Homo sapiens, UniProt O60678)
Experiment: PRMT3 Biochemical Assay (3H-SAM Flashplate, peptide substrate)
Conditions: single experiment or average of multiple experiments

Sequence of human PRMT3 (O60678 with tags, fused parts or gaps): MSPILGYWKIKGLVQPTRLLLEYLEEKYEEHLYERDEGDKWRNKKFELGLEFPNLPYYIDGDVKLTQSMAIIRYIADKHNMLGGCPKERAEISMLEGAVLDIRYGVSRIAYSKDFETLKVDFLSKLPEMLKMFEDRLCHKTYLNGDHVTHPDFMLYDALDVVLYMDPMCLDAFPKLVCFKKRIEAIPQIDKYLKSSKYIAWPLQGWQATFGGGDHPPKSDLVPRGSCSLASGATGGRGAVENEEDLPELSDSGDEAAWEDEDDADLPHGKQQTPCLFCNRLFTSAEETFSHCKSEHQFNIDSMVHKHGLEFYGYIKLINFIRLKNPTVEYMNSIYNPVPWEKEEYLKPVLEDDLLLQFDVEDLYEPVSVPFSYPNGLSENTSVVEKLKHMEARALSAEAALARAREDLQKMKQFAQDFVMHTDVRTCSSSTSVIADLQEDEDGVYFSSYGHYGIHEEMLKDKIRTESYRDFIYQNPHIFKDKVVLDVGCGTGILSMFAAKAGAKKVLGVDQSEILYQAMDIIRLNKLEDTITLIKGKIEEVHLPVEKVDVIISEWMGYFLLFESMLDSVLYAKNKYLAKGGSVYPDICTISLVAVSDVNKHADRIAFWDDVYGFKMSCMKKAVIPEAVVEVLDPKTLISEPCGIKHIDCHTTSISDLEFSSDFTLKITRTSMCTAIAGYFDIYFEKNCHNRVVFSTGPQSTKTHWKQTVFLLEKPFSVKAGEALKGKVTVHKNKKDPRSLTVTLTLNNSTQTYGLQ

Compound	IC50 [µM]
CNCCN(C)Cc1c[nH]nc1-c1ccc(F)cc1 [Compound 2, N^1-((3-(4-fluorophenyl)-1H-pyrazol-4-yl)methyl)-N^1,N^2-dimethylethane-1,2-diamine]	4.48
CNCCN(C)Cc1c[nH]nc1-c1ccc(C(=O)c2ccccc2)cc1 [Compound 45]	5.53
CNCCN(C)Cc1c[nH]nc1-c1ccc(F)cc1F [Compound 49]	4.43
CNCCN(C)Cc1c[nH]nc1-c1ccc(F)c(F)c1 [Compound 51]	5.01
CNCCN(C)Cc1c[nH]nc1-c1ccc(OC)c(F)c1 [Compound 52]	5.25
CCN(CCN)Cc1c[nH]nc1-c1ccc(F)cc1 [Compound 62]	4.13
CN(CCN)Cc1c[nH]nc1-c1ccc(C#N)cc1 [Compound 68]	4.36

Molecules with a lower IC50, results first:

IC50 [µM]	Compound
3.54	CCCc1ccc(-c2n[nH]cc2CN(C)CCNC)cc1 [Compound 20]
3.35	CNCCN(C)Cc1c[nH]nc1-c1cccc2ccccc12 [Compound 57]
3.16	CNCCN(C)Cc1c[nH]nc1-c1ccc2ccccc2c1 [Compound 58]
2.3	CNCCN(C)Cc1c[nH]nc1-c1cccc([N+](=O)[O-])c1 [Compound 21]
1.89	CNCCN(C)Cc1c[nH]nc1-c1ccc(N)cc1 [Compound 33]
0.25	CNCCN(C)Cc1c[nH]nc1-c1ccc(Oc2ccccc2)cc1 [Compound 37]
0.202	CNCCN(C)Cc1c[nH]nc1-c1ccc(CO)cc1 [Compound 28]
